Laboratory results from patent US4161595A, “Levulinic acid salt” (Bristol-Myers Company, priority 1978, dated 1979).
Values after ≈ are worked out from the molar mass of the structure shown. Structures can show the parent of a compound that is named as a salt.

Legend:
[1] = In situ solubility of acid addition salts of BL-5111 in water; type: physicochemical; conditions: for Solubility 50° C. / Solubility 25° C.: 10 mg. BL-5111 free base in 0.3 ml. water with excess of the acid; for Solubility 25° C.: room temperature (about 25° C.)
[2] = Comparative quantitative solubility study in water and methylene chloride; type: physicochemical; conditions: 25° C.; for Solubility in Methylene Chloride: measure of lipid solubility
Excerpt: In comparison to the hydrochloride salt of BL-5111, the 1:1.3 levulinate salt form has substantially greater water and lipid solubility. TABLE 3 below sets forth results of a comparative quantitative study of the BL-5111 hydrochloride and the 1:1.3 levulinate salt in water and methylene chloride. Solubility in methylene chloride is a measure of lipid solubility which plays an important role in any distribution in the body.

[3] = Plasma levels in dogs after oral administration by gavage; type: in vivo; conditions: equivalent to 10 mg. BL-5111 free base, fasted beagle dogs
Method: With respect to oral administration, the BL-5111 levulinate provides improved absorption compared to the hydrochloride salt as illustrated by enhanced plasma levels in dogs. Thus, BL-5111 levulinate (equivalent to 10 mg. of BL-5111 free base) was orally administered by gavage as a solution in 5 ml. of water followed by 20 ml. of water to beagle dogs which had been fasted 12 to 15 hours. The BL-5111 hydrochloride (equivalent to 10 mg. of the BL-5111 free base) was likewise administered with the exception that a suspension was employed due to tendency of the hydrochloride to dissolve at a rate appreciably slower than the levulinate. […] Moreover, maximum plasma level following administration was approximately three-fold greater for the levulinate than the hydrochloride while the extent of absorption of BL-5111 levulinate (determined by comparison of the area under plasma concentration-time curves taken over a period of 24 hr.) was more than double that of BL-5111 hydrochloride.

[4] = Comparative water solubility of 1:1 and 1:1.3 levulinate salts; type: physicochemical
[5] = Comparative water stability of 1:1 and 1:1.3 levulinate salts; type: physicochemical

SMILES | Solubility 50° C. [1] | Solubility 25° C. [1] | also measured
COc1cc2nc(N3CCN(C(=O)c4nnc(SC)o4)CC3)nc(N)c2cc1OC [isethionic] | - (insoluble (-)) | - (insoluble (-)) | 
COc1cc2nc(N3CCN(C(=O)c4nnc(SC)o4)CC3)nc(N)c2cc1OC [hydrochloride] |  |  | Solubility 50° C. ([1]; listed as hydrochloric): - (insoluble (-)); Solubility 25° C. ([1]; listed as hydrochloric): - (insoluble (-)); Solubility in Water [2]: 4.42 mg/mL; Solubility in Methylene Chloride [2]: < 1 mg/mL; Time at which maximum plasma levels reached ([3]; levulinate as solution, hydrochloride as suspension, listed as BL-5111 hydrochloride): 2 h
COc1cc2nc(N3CCN(C(=O)c4nnc(SC)o4)CC3)nc(N)c2cc1OC [sulfuric] | - (insoluble (-)) | - (insoluble (-)) | 
COc1cc2nc(N3CCN(C(=O)c4nnc(SC)o4)CC3)nc(N)c2cc1OC [hydrobromic] | - (insoluble (-)) | - (insoluble (-)) | 
COc1cc2nc(N3CCN(C(=O)c4nnc(SC)o4)CC3)nc(N)c2cc1OC [nitric] | - (insoluble (-)) | - (insoluble (-)) | 
COc1cc2nc(N3CCN(C(=O)c4nnc(SC)o4)CC3)nc(N)c2cc1OC [1:1.3 levulinate, 4-AMINO-6,7-DIMETHOXY-2-[4-(5-METHYLTHIO-1,3,4-OXADIAZOLE-2-CARBONYL)-PIPERAZIN-1-YL]QUINAZOLINE LEVULINATE] |  |  | Solubility in Water [2]: 38.0 mg/mL (≈ 88.1 mM); Water solubility, times that of the hydrochloride salt [2]: about 8.6 times; Solubility in Methylene Chloride [2]: > 100 mg/mL; Solubility ([4]; 10 mg./ml., room temperature): soluble; Solubility ([4]; 50 mg./ml., at 50° C.): soluble; Maximum plasma level relative to the hydrochloride [3]: approximately three-fold; Extent of absorption (area under plasma concentration-time curves) relative to BL-5111 hydrochloride ([3]; over 24 hr.): more than double; Stability of aqueous solution ([5]; room temperature): stable; Stability ([5]; water, 10 mg./ml., room temperature, listed as 1:1.3): stable; Stability ([5]; water, 50 mg./ml., room temperature): stable
COc1cc2nc(N3CCN(C(=O)c4nnc(SC)o4)CC3)nc(N)c2cc1OC [1:1, levulinic acid salt of 4-amino-6,7-dimethoxy-2-[4-(5-methylthio-1,3,4-oxadiazole-2-carbonyl)-piperazin-1-yl]quinazoline] |  |  | Solubility ([4]; 2.5 mg./ml., at 50° C.): soluble; Solubility ([4]; 10 mg./ml., at 50° C.): soluble; Solubility ([4]; 50 mg./ml., at 80° C.): insoluble; Solubility and stability relative to the 1:1.3 levulinate ([5]; water, Table 2 data): relatively less soluble and stable
COc1cc2nc(N3CCN(C(=O)c4nnc(SC)o4)CC3)nc(N)c2cc1OC [formic] | + (soluble (+)) | ± (questionable (±)) | 
COc1cc2nc(N3CCN(C(=O)c4nnc(SC)o4)CC3)nc(N)c2cc1OC [acetic] | + (soluble (+)) | + (soluble (+)) | Solubility ([1]; room temperature, 10 mg./0.3 ml. water, read-out: Solubility sufficient to provide a solution): ≥ 33 mg/mL
COc1cc2nc(N3CCN(C(=O)c4nnc(SC)o4)CC3)nc(N)c2cc1OC [succinic] | + (soluble (+)) | - (insoluble (-)) | 
COc1cc2nc(N3CCN(C(=O)c4nnc(SC)o4)CC3)nc(N)c2cc1OC [fumaric] | - (insoluble (-)) | - (insoluble (-)) | 
COc1cc2nc(N3CCN(C(=O)c4nnc(SC)o4)CC3)nc(N)c2cc1OC [methanesulfonic] | - (insoluble (-)) | - (insoluble (-)) | 
COc1cc2nc(N3CCN(C(=O)c4nnc(SC)o4)CC3)nc(N)c2cc1OC [phosphoric] | - (insoluble (-)) | - (insoluble (-)) | 
